Test results reported in patent USRE37101E, “Stabilized phosphate ester-based functional fluid compositions” (Solutia Inc., priority 1997, dated 2001).

What was measured:
[1] = fresh or as designated
rats = settings: subchronic

With `CCCCOP(=O)(OCCCC)Oc1ccccc1` [DBPP, dibutyl phenyl phosphate, reference compound] the “Independent Lab Cond.” value [1] was 0.008 μMHO/cm.

For `CC(C)COP(=O)(OCC(C)C)OCC(C)C` [TIBP, triisobutyl phosphate], the “Independent Lab Cond.” value [1] was 0.001 μMHO/cm, the NOEL (rats; bladder hyperplasia, rats) was 5000 ppm and the “Bladder Hyperplasia (finding)” value (rats; in rats >5000 ppm) was “None observed”.
